Data set [1] can be described thus: Raman spectroscopy of secondary structure of the peptides. It counts as physicochemical. The settings on record: 1×PBS, 5 mg/mL, integrated area under Raman peak. Here is the method:
In one embodiment, the secondary structure of the IIZDoK peptide contains a larger amount of α-helix structure than DoIIZK and IIZKDo peptides that preferentially contain β-turn, as can be appreciated in the Raman spectroscopy signatures of the three peptides.
Raman spectroscopy measurements were performed on DoIIZK, IIZDoK and IIZKDo at 5 mg/mL concentration in 1×PBS buffer or on dry powder samples after deposition on CaF2 slide. Witec Alpha 300 RA confocal Raman spectrometer equipped with Andor CCD camera (DU970N thermoelectrically cooled at −75° C.) was used to perform the Raman measurements in backscattered configuration. The samples were excited through a 50× objective (Zeiss® LD EC Epiplan-Neofluar) with linearly polarized 532 nm wavelength excitation laser. For the analysis, the spectra were cosmic rays removed, baseline subtracted with a polynomial of 5th order, and averaged after normalization to the 1450 cm^−1 peak intensity. Several Voigt functions were fitted setting the peaks at 1653±3, 1663±3 and 1680±3 cm^−1, corresponding to α-helix, β-turn and unordered β-turn respectively, with a FWHM set to a max value of 25 cm^−1. An additional peak at about 1635 cm^−1 was introduced into the fitting to account for contributions from water, lysine and isoleucine Raman shifts.^11

Data set [2] in a line: AFM topography of peptide nanofibres. The note with it: 13 mM in MilliQ water. It counts as physicochemical. As for the experimental part: In one embodiment, DoIIZK and IIZKDo form nice long and twisted fibers whereas, but IIZDoK peptide performs scarcely even at the concentration of 10 mg/mL. The photos in FIG. 11 has a scalebar of 200 nm, while the photos in FIG. 12 has a scalebar of 400 nm. The peptides shown in FIGS. 11 and 12 are dissolved in MilliQ® water at the concentration of 13 mM. According to the AFM photos in FIGS. 15 and 16 and 3D plot shown in FIG. 11, peptides DoIIZK, IIZDoK and IIZKDo show the following structural properties: • DoIIZK: helical pitch of 24.75±1.46 nm; maximum diametre 1.01±0.14 nm; minimum diametre: 0.66±0.09 nm. • IIZDoK: helical pitch of 8.63±0.49 nm; maximum diametre 1.66±0.19 nm; minimum diametre: 1.16±0.17 nm. • IIZKDo: helical pitch of 24.21±1.24 nm; maximum diametre 3.87±0.28 nm; minimum diametre: 3.09±0.16 nm.
AFM topography measurements were performed on a Dimension Icon SPM (Bruker®). The samples were prepared as follows: peptides were dissolved at 13 mM concentration in MilliQ® water; after 30 minutes, 20 μl of these solutions were dropped on freshly cleaved mica sheets and immediately dried with an N2 stream. Measurements were immediately performed in tapping mode in air by the use of an AFM probe AC_240TS_R3 (Olympus®) with nominal free oscillation at roughly 70 kHz and a nominal spring constant of 2 N/m. The probe was calibrated by contact-free method.^54 Free oscillation amplitude was set at 200 mV with a 5% damping during tapping mode measurement. AFM adhesion measurements were performed on a JPK Nanowizard™ III mounted on Olympus® IX-81 inverted optical microscope. A mica sheet was glued one day before the experiment with double component epoxy glue to a glass slide and enclosed in a plastic o-ring provided by the JPK company for liquid measurements. Each peptide was dissolved in MilliQ® water at a concentration of 13 mM and mixed gently. Starting with the measurement in MilliQ® water, 50 μL of the solution were dropped on the freshly cleaved mica sheet within 5 minutes from the preparation of the solution and let equilibrate for 10 minutes. After, the excess solution was removed by pipetting and discarded. Then 1 mL of MilliQ® water was added gently from the side and after 5 minutes, the sample was rinsed 3 times by additional 1 mL MilliQ® water. Finally, the sample was measured by AFM force spectroscopy (Quantitative imaging mode) with additional 1 mL MilliQ® water. The MilliQ® water was exchanged after the measurement alternatively with a water solution containing 137 mM NaCl or 10 mM Phosphate ions (a combination of Na2HPO4·7H2O and NaH2PO4·H2O to reach pH 7.4). After performing the force spectroscopy map in these two different solutions, eventually, the liquid was exchanged with 1×PBS pH 7.4. To verify the presence of eventual fibers, after the measurement, the excess solution was removed by pipetting and discarded. The sample was then rinsed two times with 1 mL MilliQ® water and dried overnight in a vacuum chamber. The topography AFM imaging was performed using AC-240TS_R3 AFM probes in tapping mode in the JPK AFM.

A further data set deals with Acropora fragments. The experiment in a line: Coral fragments glued to a tile in sea water, selection of best glue. The settings on record: for survival rate of the coral fragments: after 3 days, tile in aquarium with running seawater; for time to detachment of glued fragments under water: DoIIZK: one of the fragments, IIZDoK: all fragments; for Survival after 3 days in the aquarium / Survival after attachment: number of Acropora fragments of n = 3. It counts as in vivo, Acropora spp. Here is the method:
In one embodiment, coral fragments were attached to a tile using DoIIZK, IIZDoK, IIZKDo as a glue. The tile, to which the coral fragments were attached, has a size 10×10 cm and was placed into a shallow aquarium supplied with running seawater.
In one embodiment, the survival rate of the coral fragments fixed with DoIIZK was 67%, whereas the survival rate glued with IIZDoK and IIZKDo were respectively 0% and 100%, after 3 days.
The different glues were prepared at the same concentration of 40 mg/mL for DoIIZK, IIZDoK and IIZKDo. Then, the coral fragments were adhered to the surface of the tiles by applying gentle pressure as following: triplicates in the first line with DoIIZK as a glue, second line with IIZDoK and last line with IIZKDo. The experiment setup is illustrated in FIG. 40. The tiles were afterwards placed underwater in a tank containing filtered sea water. One of the fragments that was glued with DoIIZK detached less than 15 minutes after we placed the tile under water and all of the fragments that were glued with IIZDoK detached around 30 minutes after they have been placed under water.

The mark [3] stands for this setting: glue 40 mg/mL, tile in filtered sea water.

Molecules are shown by their SMILES. Where a SMILES comes first, the peptide text is derived from it. [ ]: non-standard residue; d: D form. Dopa = N[C@@H](Cc1ccc(O)c(O)c1)C(=O)O; Cha = N[C@@H](CC1CCCCC1)C(=O)O

With `CC[C@H](C)[C@H](NC(=O)[C@H](Cc1ccc(O)c(O)c1)NC(C)=O)C(=O)N[C@H](C(=O)N[C@@H](CC1CCCCC1)C(=O)N[C@@H](CCCCN)C(N)=O)[C@@H](C)CC` [DoIIZK, Ac-Dopa-Ile-Ile-Cha-Lys-NH2] (Ac-[Dopa]II[Cha]K-NH2), in data set [1], the “Disordered structure Area %” value is 1687; 22%, the “α-helix Area %” value was 1650; 13% and the “β-turn Area %” value was 1665; 65%. Besides, in data set [2], the helical pitch was found to be 24.75±1.46 nm, the maximum diametre was 1.01±0.14 nm and the minimum diametre is 0.66±0.09 nm. In the data set on Acropora fragments, the “survival rate of the coral fragments” value stood at 67%, the “Survival after 3 days in the aquarium” value is listed as 2 and the Survival after attachment turned out to be 3. In the data set on Acropora fragments (setting [3]), the “time to detachment of glued fragments under water” value is given as “less than 15 minutes”.
For `CC[C@H](C)[C@H](NC(C)=O)C(=O)N[C@H](C(=O)N[C@@H](CC1CCCCC1)C(=O)N[C@@H](Cc1ccc(O)c(O)c1)C(=O)N[C@@H](CCCCN)C(N)=O)[C@@H](C)CC` [IIZDoK, Ac-Ile-Ile-Cha-Dopa-Lys-NH2] (Ac-II[Cha][Dopa]K-NH2), in data set [1], the “Disordered structure Area %” value is 1690; 16%, the “α-helix Area %” value is on record as 1656; 40% and the “β-turn Area %” value is recorded as 1666; 44%. Moreover, in data set [2], the helical pitch came out at 8.63±0.49 nm, the maximum diametre amounted to 1.66±0.19 nm and the minimum diametre is listed as 1.16±0.17 nm. Moreover, in the data set on Acropora fragments, the “survival rate of the coral fragments” value turned out to be 0%, the “Survival after 3 days in the aquarium” value stood at 0 and the Survival after attachment came to 3. For the same compound, the “time to detachment of glued fragments under water” value with Acropora fragments (setting [3]) is given as “around 30 minutes”.
Take `CC[C@H](C)[C@H](NC(C)=O)C(=O)N[C@H](C(=O)N[C@@H](CC1CCCCC1)C(=O)N[C@@H](CCCCN)C(=O)N[C@@H](Cc1ccc(O)c(O)c1)C(N)=O)[C@@H](C)CC` [IIZKDo, Ac-Ile-Ile-Cha-Lys-Dopa-NH2] (Ac-II[Cha]K[Dopa]-NH2): in data set [1], the “Disordered structure Area %” value is 1690; 18%, the “α-helix Area %” value is recorded as 1658; 18% and the “β-turn Area %” value was 1666; 64%. In data set [2], the helical pitch amounted to 24.21±1.24 nm, the maximum diametre is reported as 3.87±0.28 nm and the minimum diametre is listed as 3.09±0.16 nm. In addition, in the data set on Acropora fragments, the “survival rate of the coral fragments” value was 100%, the “Survival after 3 days in the aquarium” value came out at 3 and the Survival after attachment was 3. In the data set with Acropora fragments (glue 40 mg/mL, tile in filtered sea water, triplicates), the “fragments sticking to the tile after 17 days” value is recorded as “still all sticking to the tile after 17 days”.
